Results reported in patent US12667559B2, “Dihydronaphthyridinone compound, and preparation method therefor and medical use thereof” (GENFLEET THERAPEUTICS (SHANGHAI) INC., priority 2020, dated 2026).
Where two headings read alike, the source gives them in different places.

Tested on: U937 cells
Assay: Inhibitory activity against TNF-α induced programmed cell necrosis (U937 cells, CellTiter-Glo)
Type: cell-based, human
Conditions: read-out: U937 IC50
[1] = Homo sapiens, U-937, 48 h, U937 cells, human TNF-α and Q-VD-Oph induced necrosis, 48 hours, survival rate
[2] = U-937, U937 cells, human TNF-α and Q-VD-Oph induced necrosis, 48 hours, survival rate
[3] = U937 cells, human TNF-α and Q-VD-Oph induced necrosis, 48 hours, survival rate

Structure (SMILES)	IC50 [1] [nM]	also measured
Cc1nc2c(cc1-c1ccn3nc(N)nc3c1)C(=O)N(Cc1cc(OC(F)(F)F)ccc1F)CC2 [Z57, 3-(2-amino-[1,2,4]triazolo[1,5-a]pyridyl-7-yl)-6-(2-fluoro-5-(trifluoromethoxy)benzyl)-2-methyl-7,8-dihydro-1,6-naphthyridin-5(6H)-one]	2	–
CC(=O)Nc1cn2nc(-c3cnc4c(c3)C(=O)N(Cc3cc(F)ccc3-c3cnn(C)c3)CC4)ccc2n1 [Z23, N-(6-(6-(5-fluoro-2-(1-methyl-1H-pyrazol-4-yl)benzyl)-5-oxo-5,6,7,8-tetrahydro-1,6-naphthyridin-3-yl)imidazo[1,2-b]pyridazin-2-yl)acetamide]	–	IC50 [2]: 24.3 nM
Nc1nc2cc(-c3cnc4c(c3)C(=O)N(c3cnn(Cc5ccc(F)cc5)c3)CC4)ccn2n1 [Z52, 3-(2-amino-[1,2,4]triazolo[1,5-a]pyridyl-7-yl)-6-(1-(4-fluorobenzyl)-1H-pyrazol-4-yl)-7,8-dihydro-1,6-naphthyridin-5(6H)-one]	19	–
Nc1nc2cc(-c3cc4c(nc3Cl)CCN(Cc3cc(OC(F)(F)F)ccc3F)C4=O)ccn2n1 [Z56, 3-(2-amino-[1,2,4]triazolo[1,5-a]pyridyl-7-yl)-2-chloro-6-(2-fluoro-5-(trifluoromethoxy)benzyl)-7,8-dihydro-1,6-naphthyridin-5(6H)-one]	–	IC50 [3]: 4 nM
Nc1nc2cc(-c3cnc4c(c3)C(=O)N(Cc3cccnc3OC3CC3)CC4)ccn2n1 [Z77]	143	–
C[C@@](O)(C(=O)N1C[C@@H](N2CCc3ncc(-c4ccc5c(N)ncnn45)cc3C2=O)[C@@H](F)C1)C(F)(F)F [Z31, cis-3-(4-aminopyrrolo[2,1-f][1,2,4]triazin-7-yl)-6-(4-fluoro-1-((R)-3,3,3-trifluoro-2-hydroxy-2-methylpropionyl)pyrrolidin-3-yl)-7,8-dihydro-1,6-naphthyridin-5(6H)-one]	18.2	–
Nc1nc2cc(-c3cnc4c(c3)C(=O)N(Cc3cc(F)ccc3OC3CCOC3)CC4)ccn2n1 (stereo not drawn) [Z66]	2.3	–
CC(=O)Nc1nc2cc(-c3cnc4c(c3)C(=O)N(C(C)c3ccccc3OC(F)(F)F)CC4)ccn2n1 (stereo not drawn) [Z49, N-(7-(5-oxo-6-(1-(2-(trifluoromethoxy)phenyl)ethyl)-5,6,7,8-tetrahydro-1,6-naphthyridin-3-yl)-[1,2,4]triazolo[1,5-a]pyridyl-2-yl)acetamide]	–	IC50 [3]: 26 nM
Nc1nc2cc(-c3cnc4c(c3)C(=O)N(Cc3cc(F)ccc3OC3CC3)CC4)ccn2n1 [Z76]	4.1	–
O=C(COCc1ccccc1)Nc1cn2nc(-c3cnc4c(c3)C(=O)N(Cc3cc(F)cc(F)c3OC3CCOCC3)CC4)ccc2n1 [Z94, 2-(Benzoxy)-N-(6-(6-(3,5-difluoro-2-((tetrahydro-2H-pyran-4-yl)oxy)benzyl)-5-oxo-5,6,7,8-tetrahydro-1,6-naphthyridin-3-yl)imidazo[1,2-b]pyridazin-2-yl)acetamide]	2.5	–
Nc1nc2cc(-c3cnc4c(c3)C(=O)N(Cc3cc(F)cc(F)c3OC3CCOCC3)CC4)ccn2n1 [Z70]	0.4	–
Nc1nc2cc(-c3cnc4c(c3)C(=O)N(Cc3ncccc3OC3CCOCC3)CC4)ccn2n1 [Z62, 3-(2-amino-[1,2,4]triazolo[1,5-a]pyridin-7-yl)-6-((3-((tetrahydro-2H-pyran-4-yl)oxy)pyridin-2-yl)methyl)-7,8-dihydro-1,6-naphthyridin-5(6H)-one]	–	IC50 [2]: 13 nM
Nc1nc2cc(-c3cnc4c(c3)C(=O)N(Cc3cc(F)ccc3OC3CCOCC3)CC4)ccn2n1 [Z65]	0.5	–
Nc1nc2cc(-c3cnc4c(c3)C(=O)N(Cc3ncccc3OC3CC3)CC4)ccn2n1 [Z78]	59.5	–
[2H]C([2H])([2H])C(=O)Nc1cn2nc(-c3cnc4c(c3)C(=O)N(Cc3cc(F)cc(F)c3OC3CCOCC3)CC4)ccc2n1 [Z38, N-(6-(6-(3,5-difluoro-2-((tetrahydro-2H-pyran-4-yl)oxy)benzyl)-5-oxo-5,6,7,8-tetrahydro-1,6-naphthyridin-3-yl)imidazo[1,2-b]pyridazin-2-yl)acetamide-2,2,2-d3]	–	IC50 [2]: 1.3 nM
CC(=O)Nc1cn2nc(-c3cnc4c(c3)C(=O)N(Cc3cc(F)cc(F)c3OC3CCOC3)CC4)ccc2n1 (stereo not drawn) [Z3, N-(6-(6-(3,5-difluoro-2-((tetrahydrofuran-3-yl)oxy)benzyl)-5-oxo-5,6,7,8-tetrahydro-1,6-naphthyridin-3-yl)imidazo[1,2-b]pyridazin-2-yl)acetamide]	1.4	–
Cn1c(N)nc2ccc(-c3cnc4c(c3)C(=O)N(Cc3cc(OC(F)(F)F)ccc3F)CC4)cc21 [Z14, 3-(2-amino-1-methyl-1H-benzo[d]imidazol-6-yl)-6-(2-fluoro-5-(trifluoromethoxy)benzyl)-7,8-dihydro-1,6-naphthyridin-5(6H)-one]	–	IC50 (Homo sapiens, U-937, 48 h): 10.2 nM
CC(=O)Nc1cn2nc(-c3cnc4c(c3)C(=O)N(Cc3cc(F)ccc3OC3CCOCC3)CC4)ccc2n1 [Z21, N-(6-(6-(5-fluoro-2-((tetrahydro-2H-pyran-4-yl)oxy)benzyl)-5-oxo-5,6,7,8-tetrahydro-1,6-naphthyridin-3-yl)imidazo[1,2-b]pyridazin-2-yl)acetamide]	–	IC50 (Homo sapiens, U-937, 48 h): 0.6 nM
CCOC(=O)C(=O)Nc1cn2nc(-c3cnc4c(c3)C(=O)N(Cc3cc(F)cc(F)c3OC3CCOCC3)CC4)ccc2n1 [Z96, ethyl 2-((6-(6-(3,5-difluoro-2-((tetrahydro-2H-pyran-4-yl)oxy)benzyl)-5-oxo-5,6,7,8-tetrahydro-1,6-naphthyridin-3-yl)imidazo[1,2-b]pyridazin-2-yl)amino)-2-oxoacetate]	1.7	–
Cc1nc2c(cc1-c1ccn3nc(N)nc3c1)C(=O)N(Cc1ncccc1OC1CC1)CC2 [Z93]	13	–
CC(c1cc(OC(F)(F)F)ccc1F)N1CCc2ncc(-c3ccn4nc(N)nc4c3)cc2C1=O (stereo not drawn) [Z60, 3-(2-amino-[1,2,4]triazolo[1,5-a]pyridyl-7-yl)-6-(1-(2-fluoro-5-(trifluoromethoxy)phenyl)ethyl)-7,8-dihydro-1,6-naphthyridin-5(6H)-one]	–	IC50 [2]: 162 nM
Nc1nc2cc(-c3cnc4c(c3)C(=O)N(Cc3ccccc3OC(F)(F)F)CC4)ccn2n1 [Z44, 3-(2-amino-[1,2,4]triazolo[1,5-a]pyridyl-7-yl)-6-(2-(trifluoromethoxy)benzyl)-7,8-dihydro-1,6-naphthyridin-5(6H)-one]	–	IC50 [2]: 42 nM
CC(C)(O)C(=O)N1CC(F)C(N2CCc3ncc(-c4cc(C(F)(F)F)c5c(N)ncnn45)cc3C2=O)C1 (stereo not drawn) [Z33, cis-3-(4-amino-5-(trifluoromethyl)pyrrolo[2,1-f][1,2,4]triazin-7-yl)-6-(4-fluoro-1-(2-hydroxy-2-methylpropionyl)pyrrolidin-3-yl)-7,8-dihydro-1,6-naphthyridin-5(6H)-one]	338	–
Cc1c(-c2cnc3c(c2)C(=O)N(Cc2ncccc2OC2CC2)CC3)ccn2nc(N)nc12 [Z98, 3-(2-amino-8-methyl-[1,2,4]triazolo[1,5-a]pyridyl-7-yl)-6-((3-cyclopropoxypyridyl-2-yl)methyl)-7,8-dihydro-1,6-naphthyridin-5(6H)-one]	417	–
C[C@@H](c1ccc(F)cc1)n1cc(N2CCc3ncc(-c4cc(C(F)(F)F)c5c(N)ncnn45)cc3C2=O)cn1 (single isomer, unassigned) [Z35-2]	0.2	–
Nc1nc2cc(-c3cnc4c(c3)C(=O)N(Cc3cc(F)cc(F)c3OC3CCOC3)CC4)ccn2n1 (stereo not drawn) [Z71]	1.1	–
C[C@@](O)(C(=O)N1C[C@@H](N2CCc3ncc(-c4cc(C(F)(F)F)c5c(N)ncnn45)cc3C2=O)[C@@H](F)C1)C(F)(F)F (single isomer, unassigned) [Z27-2]	–	IC50 [3]: 1.9 nM
